Series [1] concerns βAPP. Briefly: βAPP levels in SK-N-SH cells (conditioned media and cell lysates), western blot. It counts as cell-based, human. On the procedure: (§1) SK-N-SH neuroblastoma cells were cultured on 60 mm dishes at a concentration of 3×10^6 cells, and SH-SY-5Y neuroblastoma and U373 astrocytorna cell lines were plated in 100 mm dishes at a concentration of 3×10^5 cells. The cells were allowed to grow in complete medium ([…], 2 mM glutamine in DMEM) for 3 to 4 days until they reached 70% confluence. To start the experiment, spent medium was removed and replaced with fresh medium (SKNSH—4 ml of DMEM+0.5% FBS; U373—5 ml of DMEM+2.5% FBS) containing 0, 5, or 50 μM phenserine. The cells were incubated at 37° C., 5% CO2 for the specific times indicated. Different media and sera were purchased from Life Technologies (Gaithersberg, Md.).
(§2) At each time point, the spent medium was collected and stored at −70° C. for later analysis of secretory βAPP levels. The cells were washed twice with PBS, pH 7.4 and incubated on ice for 15 min for lysis with 100 μL of lysis buffer (20 mM HEPES, 2 mM EGTA, 50 mM (β-glycophosphate, 1 mM sodium orthovanadate, 1% Triton X-100, 10% glycerol) containing appropriate protease inhibitors (2 mM PMSF, 100 μg/mL aprotinin, 25 μM leupeptin and 20 μg/mL soybean trypsin inhibitor). Each lysate was microcentrifuged for 15 min at 14 000 rpm. Protein levels of the supernatant were analyzed by the Bradford protein assay (BioRad, Melville, N.Y.).
Fifteen μg of protein from each sample was mixed with the appropriate volume of 5× Laemmli buffer and boiled for 5 min at 100° C. The samples were loaded onto a 10% NuPAGE Bis-Tris gel in 1×NuPAGE MOPS SDS running buffer (NOVEX, San Diego, Calif.) and the proteins separated at 200 V for 45 min. The gels then were transferred onto nitrocellulose at 25 V for 1.5 h. The blots were blocked with 5% non-fat dry milk in 10 mM Tris, pH 8.0 containing 150 mM NaCl for 1 h and washed twice for 15 min in large volumes of TBST (10 mM Tris, pH 8.0, 150 mM NaCl and 0.05% Tween 20). Each blot was probed for 2 h with either 22C11 anti-βAPP-terminal antibody (Boehringer Mannheim, Indianapolis, Ind.), diluted to a concentration of 2.5 μg/mL or anti-activated ERK antibody (Promega, Madison, Wis.), diluted to a concentration of 25 ng/mL. The blots were washed twice for 15 min in TBST and placed in secondary antibody, anti-mouse IgG- or anti-rabbit IgG conjugated to horse radish peroxidase (Sigma, St. Louis, Mo.), for 30 min. Three final TBST washes of 20 min duration each were performed before the samples were detected by chemiluminescence and exposed to film, as per the manufacturer's instructions (Amersham Life Science Inc., Arlington Heights, Ill.). Additionally, all blots also were stained with Ponceau S (Sigma, St. Louis, Mo.) to determine equivalent loading of samples. Densitometric quantification of blots was undertaken by using a […] and NIH-IMAGE (version 4.1).
Western blots of conditioned media (FIG. 4A) and cell lysates (FIG. 4B) were probed; with a N-terminal directed anti-βAPP antibody.
3×10^6 SK-N-SH cells were plated on 60 mm dishes with DMEM containing 10% FBS. After 36 hours, cells were incubated with low serum medium for 1 hour. Thereafter, the medium was replaced with fresh low serum medium (0.5% FBS). […] The cells were incubated with and without phenserine for 16 hours. At the stated time (4, 8 and 16 hrs), 200 μl of medium was transferred from each dish for assessment of extracellular APP levels. At the end of experiments (16 hrs), the cells were lysed and collected for assessment of intracellular APP levels.
15 μL of medium samples and 15 μg of total protein from each lysed samples were loaded onto 10% trys-glycine gels, and the protein was separated at 150 V for 90 min. The gels were transferred onto polyvinylidene difluoride paper and probed with an affinity-purified anti-APP antibody (22C11), which recognizes the ectodomain of APP (residues 66-81). The APP signals were detected by chemiluminescence and exposed to film. The quantitation of the signals was determined by using a CD camera and NIH-IMAGE (version 4.0). […]

For a further series, the system named is total Aβ peptide. Briefly: total Aβ ELISA in SK-N-SH conditioned medium. The series is classed as cell-based, human. As to conditions: for Aβ peptide levels: cymserine and analogs. As for the experimental part:
Total Aβ peptide levels in SH-SY-SY and SK-N-SH cultured samples were assayed by a sensitive ELISA (Suzuki et al., 1994). For total Aβ measurements in conditioned medium, the rabbit polyclonal antibody #3160 (1-40 residues of Aβ) was used as a capture antibody for all species of Aβ peptide (Aβ1-40 and Aβ1-42) while monoclonal antibody 4G8 (17-25 residues of Aβ) was used to detect Aβ peptide levels, and the values were expressed as the mean of six independent assays.
Likewise, (+)-phenserine reduced BAPP protein levels and total Aβ peptide levels at 16 hours (FIG. 5).
A general note: An ELISA detects its analyte on a solid surface through an enzyme-linked reagent.

For the next series, the system named is ERK½. Briefly: phosphorylated ERK in SH-SY5Y cells, western blot. Particulars: 5 μM, 0.5-4 hours. The series is classed as cell-based, human. On the procedure:
Fifteen μg of protein from each sample was mixed with the appropriate volume of 5× Laemmli buffer and boiled for 5 min at 100° C. The samples were loaded onto a 10% NuPAGE Bis-Tris gel in 1×NuPAGE MOPS SDS running buffer (NOVEX, San Diego, Calif.) and the proteins separated at 200 V for 45 min. The gels then were transferred onto nitrocellulose at 25 V for 1.5 h. The blots were blocked with 5% non-fat dry milk in 10 mM Tris, pH 8.0 containing 150 mM NaCl for 1 h and washed twice for 15 min in large volumes of TBST (10 mM Tris, pH 8.0, 150 mM NaCl and 0.05% Tween 20). […] Three final TBST washes of 20 min duration each were performed before the samples were detected by chemiluminescence and exposed to film, as per the manufacturer's instructions (Amersham Life Science Inc., Arlington Heights, Ill.). […] Densitometric quantification of blots was undertaken by using a […] and NIH-IMAGE (version 4.1).
SH-SY5Y cells were incubated with 5 μM (+)-phenserine or (−) phenserine for 0, 0.5, 1, 2 and 4 hours to determine the effect of the drug on βAPP protein levels. Western blots of cell lysates containing 15 μg of total protein per lane were analyzed. […] Stress activated transcription kinases, p38 and JNK, were not detected in the samples. […]
(In general: A western blot detects proteins with antibodies after separation by electrophoresis.)

Series [2] concerns cholinesterase. Particulars: Greig et al., 1995; Brossi et al., 1996; cited from earlier work.
Series [3] deals with βAPP. Briefly: βAPP protein levels in SH-SY5Y cell lysates, western blot. It counts as cell-based, human. As to conditions: 5 μM, 0.5, 1, 2 and 4 hours. As for the experimental part:
as §1
as §2, with “N.Y.). […]” for “N.Y.).”

The test system of the next series is SK-N-SH cells. Briefly: LDH assay / cell number and viability, SK-N-SH cells. Particulars: for toxicity by cell number and viability (LDH measurement): cymserine and analogs. The series is classed as cell-based, human. The text has this: Measurement of released lactate dehydrogenase (LDH) in the conditioned medium was undertaken as a marker of cell viability and integrity, as described previously (Lahiri et al., 1997 and 1998).
This was not associated with cellular dysfunction, as determined by measurement of LDH levels versus untreated controls (FIG. 4C).

The nature of series [4]: in vivo toxicity, i.p. administration to rodents. As to conditions: 20 mg/kg. As for the experimental part: This persisted for an hour and is related to central cholinergic overdrive. […] Animals were incapacitated at 20 mg/kg (N=3 per dose group), and 2 were killed when moribund.
The subject of series [5] is cholinesterase. It counts as biochemical.
The next series has as its system Aβ1-42. Briefly: Aβ1-42 levels in cerebral cortex of transgenic mice, ELISA. The series is classed as in vivo. Particulars: formic acid extraction, 3 weeks daily. On the procedure: (§3) Greater reductions could be achieved, but, as previously reported, doses of >5 mg/kg produce cholinergic side effects for the (−)-enantiomer but not for the (+)-enantiomer.
(§4) Samples of cerebral cortex from the transgenic mice then were analyzed for β amyloid peptide (Aβ) levels. Specifically, Aβ1-40 and Aβ1-42 levels, following formic acid extraction, were determined by ELISA assay (Suzuki et al., 1994).

The next series has as its system Aβ1-40. Briefly: Aβ1-40 levels in cerebral cortex of transgenic mice, ELISA. The series is classed as in vivo. As to conditions: formic acid extraction, 3 weeks daily. On the procedure:
as §3, §4

A further series deals with secreted APP. Briefly: ELISA for secreted APP in SHSY5Y cells. It counts as cell-based, human. Particulars: 16 hours.
A further series has as its system SH-SY-5Y Cells. Briefly: MTS toxicity assay in SHSY5Y cells. It counts as cell-based, human. For orientation: Tetrazolium dyes change colour on reduction, which living cells bring about.
Another series has as its system βAPP and Aβ. Particulars: neuronal cells in vitro; Lahiri et al., 1998; cited from earlier work.

The structures appear in SMILES notation.

Consider `CN1CCC2(C)c3cc(OC(=O)Nc4ccccc4)ccc3N(C)C12` (single isomer, unassigned; (+)) [(+)-phenserine, (+)-Phenserine], for which the BAPP protein levels result in the series with βAPP [1] (16 hours (FIG. 5)) is “reduced”. For the same compound, in the series on total Aβ peptide (16 hours (FIG. 5)), the “total Aβ peptide levels” value is “reduced”. In the series with ERK½, the “ERK½ (phosphorylated) detection” value is listed as “peaked at the 30 minute to 1 hour period”. In addition, the anti-cholinesterase activity entry with cholinesterase [2] is given as “no anti-cholinesterase activity”. Further, the “βAPP levels in the cell lysates” value in the series with βAPP [3] is reported as “slowly decreased at each time point”. In the series with SK-N-SH cells (SK-N-SH, 16 hours (FIG. 5)), the “toxicity by cell number and viability (LDH levels)” value is recorded as “not associated with toxicity”. In addition, the clinical signs result in [4] was “without clinical symptoms and appeared normal”. The “anticholinesterase activity / action” value in the series on cholinesterase [5] is recorded as “devoid of anticholinesterase activity”.

Take `CC(C)c1ccc(NC(=O)Oc2ccc3c(c2)[C@]2(C)CCNC2N3)cc1` (single isomer, unassigned; (-)) [(−)-N^1,N^8-bisnorcymserine]: in the series with βAPP [1] (cymserine and analogs (FIG. 7)), the βAPP protein levels entry is reported as “reduced βAPP protein levels”. Moreover, the Aβ peptide levels result with total Aβ peptide was “also reduced”. Besides, the “toxicity by cell number and viability (LDH measurement)” value (shortened to “toxicity … (LDH measurement)”) with SK-N-SH cells (SK-N-SH) is reported as “no toxicity”. The “toxicity at higher concentrations” value in the series on SK-N-SH cells was “toxic”.

Consider `CC(C)c1ccc(NC(=O)Oc2ccc3c(c2)[C@@]2(C)CCN(C)[C@H]2N3C)cc1` [(+)-cymserine, (+)-Cymserine], for which the βAPP protein levels entry in the series with βAPP [1] (cymserine and analogs (FIG. 7)) is listed as “reduced βAPP protein levels”. For the same compound, the Aβ peptide levels entry with total Aβ peptide is “also reduced”. Besides, the “toxicity … (LDH measurement)” value in the series with SK-N-SH cells (SK-N-SH) is “no toxicity”. In addition, in the series on cholinesterase [5], the “anticholinesterase activity / action” value is “devoid of it”.

For the compound `CC(C)c1ccc(NC(=O)Oc2ccc3c(c2)[C@]2(C)CCN(CCc4ccccc4)[C@@H]2N3C)cc1` [(−)-N^1-phenethylcymserine], in the series on βAPP [1] (cymserine and analogs (FIG. 7)), the βAPP protein levels result is reported as “reduced βAPP protein levels”. Further, the Aβ peptide levels entry with total Aβ peptide is on record as “also reduced”. For the same compound, in the series with Aβ1-42, the “reduction of Aβ1-42 levels” value is 47%. For the same compound, in the series on SK-N-SH cells (SK-N-SH), the “toxicity … (LDH measurement)” value was “no toxicity”. For the same compound, in the series with SK-N-SH cells, the “toxicity at higher concentrations” value is reported as “toxic”. In the series on Aβ1-40, the “reduction of Aβ1-40 levels” value stood at 54%.

Turning to `CC(C)c1ccc(NC(=O)Oc2ccc3c(c2)[C@]2(C)CCN(C)[C@@H]2N3C)cc1` [(−)-cymserine], the βAPP protein levels result in the series on βAPP [1] (cymserine and analogs (FIG. 7)) is listed as “reduced βAPP protein levels”. Further, the Aβ peptide levels entry with total Aβ peptide was “also reduced”. The “toxicity … (LDH measurement)” value with SK-N-SH cells (SK-N-SH) was “no toxicity”. In addition, the “anticholinesterase activity / action” value with cholinesterase [5] is recorded as “possessed anticholinesterase action”.

Consider `CNC(=O)Oc1ccc2c(c1)[C@]1(C)CCN(C)[C@@H]1N2C` [(−)-physostigmine, reference compound], for which, in the series with βAPP [1] (50 μM), the βAPP protein levels entry is reported as “no reduction or change”. In addition, the “total Aβ peptide levels” value with total Aβ peptide (50 μM) is on record as “no reduction or change”.

Take `Br.CC1=C(c2ccc(O)cc2)CN2CCC[C@H]2C1.O` [MES 9330]: the results for the “APP Secretion by SH-SY-5Y Cells” value with secreted APP (Dose 2 uM), in the series with secreted APP (Dose 6 uM) and with secreted APP (Dose 20 uM) were 99.6 % vehicle control, 101.5 % vehicle control and 110.65 % vehicle control, respectively. Also, the “APP Toxicity SH-SY-5Y Cells (MTS assay)” value is 99.05 % vehicle control with SH-SY-5Y Cells (Dose 2 uM), 98.45 % vehicle control in the series on SH-SY-5Y Cells (Dose 6 uM) and 97.95 % vehicle control in the series with SH-SY-5Y Cells (Dose 20 uM).

With `Clc1ccc(C2CC3CCC2N3)cn1` (centres unmarked) [MES 9331], the “APP Secretion by SH-SY-5Y Cells” value was found to be 95.45 % vehicle control in the series with secreted APP (Dose 2 uM), 102.1 % vehicle control in the series with secreted APP (Dose 6 uM) and 106.7 % vehicle control with secreted APP (Dose 20 uM). The “APP Toxicity SH-SY-5Y Cells (MTS assay)” value in the series with SH-SY-5Y Cells (Dose 2 uM) turned out to be 100.45 % vehicle control; in the series on SH-SY-5Y Cells (Dose 6 uM), 99.99 % vehicle control; in the series with SH-SY-5Y Cells (Dose 20 uM) it was 98.95 % vehicle control.

On to `Nc1c2c(nc3ccccc13)CCCC2` [tacrine], for which the “βAPP and Aβ” value with βAPP and Aβ is “decrease βAPP and Aβ”.

The values are drawn from patent publication US8691864B2, “Agents useful for reducing amyloid precursor protein and treating dementia and methods of use thereof” (priority 2000, dated 2014).
